Test results: the NIST ThermoML archive (doi:10.1016/j.tca.2004.12.015)
Numbers after ± are expanded uncertainties.

Assay: Molar enthalpy of transition or fusion
Conditions: Adiabatic calorimetry

Structure (SMILES): N#CCCNc1ccccc1 [3-anilinopropanenitrile]
- Molar enthalpy of transition or fusion (Crystal 1): 0.2342 ± 0.0012 kcal/mol
- Molar enthalpy of transition or fusion (Crystal 2): 4.6367 ± 0.0012 kcal/mol
